Data reported in ChEMBL document CHEMBL4507276 (2021).

Tests used:
[1] = target: Serine/threonine-protein kinase MARK1 (Homo sapiens) (UniProt Q9P0L2); details: Compound concentration 1000.0 nM
[2] = target: 5-hydroxytryptamine receptor 1E (Homo sapiens) (UniProt P28566); details: Compound concentration 10.0 uM
[3] = target: Phosphatidylinositol 3-kinase catalytic subunit type 3 (Homo sapiens) (UniProt Q8NEB9); experiment: PIK3C3 Invitrogen selectivity data (BI); details: Compound concentration 3.0 uM
[4] = target: Glucocorticoid receptor (Homo sapiens) (UniProt P04150); experiment: GLUCOCORTICO Eurofins-Panlabs selectivity data (BI); details: Compound concentration 10.0 uM
[5] = target: T1, Serine/threonine-protein kinase Nek9 (Homo sapiens) (UniProt Q8TD19); experiment: NEK9 Invitrogen selectivity data (BI); details: Compound concentration 3.0 uM
T1 sequence (whole entry): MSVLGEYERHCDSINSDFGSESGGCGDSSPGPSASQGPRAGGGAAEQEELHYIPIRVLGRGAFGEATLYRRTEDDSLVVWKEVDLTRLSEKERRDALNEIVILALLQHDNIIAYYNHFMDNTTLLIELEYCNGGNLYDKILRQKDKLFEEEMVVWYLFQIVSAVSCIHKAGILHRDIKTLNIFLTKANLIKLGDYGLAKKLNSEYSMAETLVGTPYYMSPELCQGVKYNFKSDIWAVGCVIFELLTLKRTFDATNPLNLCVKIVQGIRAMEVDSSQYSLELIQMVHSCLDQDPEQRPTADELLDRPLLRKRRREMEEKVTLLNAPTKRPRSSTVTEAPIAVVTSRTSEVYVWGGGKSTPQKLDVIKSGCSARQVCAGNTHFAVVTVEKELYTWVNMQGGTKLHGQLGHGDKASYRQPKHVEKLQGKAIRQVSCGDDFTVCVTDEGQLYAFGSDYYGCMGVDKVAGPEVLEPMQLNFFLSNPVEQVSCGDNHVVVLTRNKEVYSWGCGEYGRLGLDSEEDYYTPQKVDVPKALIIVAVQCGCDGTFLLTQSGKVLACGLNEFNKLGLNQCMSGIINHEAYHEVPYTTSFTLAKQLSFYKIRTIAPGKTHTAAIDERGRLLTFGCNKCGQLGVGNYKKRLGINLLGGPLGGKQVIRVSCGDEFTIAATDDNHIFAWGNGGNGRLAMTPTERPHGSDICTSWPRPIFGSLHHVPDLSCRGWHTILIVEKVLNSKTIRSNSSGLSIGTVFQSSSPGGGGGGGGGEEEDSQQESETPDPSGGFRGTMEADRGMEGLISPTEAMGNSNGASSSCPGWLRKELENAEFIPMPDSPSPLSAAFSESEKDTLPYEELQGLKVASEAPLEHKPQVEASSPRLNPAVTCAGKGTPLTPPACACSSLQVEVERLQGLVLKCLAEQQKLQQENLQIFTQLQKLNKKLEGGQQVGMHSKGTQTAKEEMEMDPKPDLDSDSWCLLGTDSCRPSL

[6] = target: PI3-kinase p110-alpha/p85-alpha (Homo sapiens) (UniProt P27986+P42336); experiment: PIK3CAPIK3R1 Invitrogen selectivity data (BI); type: protein-complex assay; details: Compound concentration 3.0 uM
[7] = target: T2, Serine/threonine-protein kinase Sgk2 (Homo sapiens) (UniProt Q9HBY8); experiment: SGK2 Invitrogen selectivity data (BI); details: Compound concentration 3.0 uM
T2 sequence (whole entry): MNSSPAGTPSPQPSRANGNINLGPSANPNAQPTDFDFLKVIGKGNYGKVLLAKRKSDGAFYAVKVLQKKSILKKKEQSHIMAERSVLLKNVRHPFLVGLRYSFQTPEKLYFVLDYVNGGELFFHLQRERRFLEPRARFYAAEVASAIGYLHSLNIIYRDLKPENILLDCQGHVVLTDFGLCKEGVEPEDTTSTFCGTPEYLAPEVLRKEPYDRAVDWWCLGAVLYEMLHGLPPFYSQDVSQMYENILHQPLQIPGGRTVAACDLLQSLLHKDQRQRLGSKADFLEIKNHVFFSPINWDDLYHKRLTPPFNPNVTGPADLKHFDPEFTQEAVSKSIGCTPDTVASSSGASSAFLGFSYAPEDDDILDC

[8] = target: Glutamate receptor ionotropic, kainate 1 (Rattus norvegicus) (UniProt P22756); experiment: KAINATE/RA Cerep selectivity data (BI); details: Compound concentration 20.0 uM
Sequence of Glutamate receptor ionotropic, kainate 1 (Rattus norvegicus) (P22756 whole entry): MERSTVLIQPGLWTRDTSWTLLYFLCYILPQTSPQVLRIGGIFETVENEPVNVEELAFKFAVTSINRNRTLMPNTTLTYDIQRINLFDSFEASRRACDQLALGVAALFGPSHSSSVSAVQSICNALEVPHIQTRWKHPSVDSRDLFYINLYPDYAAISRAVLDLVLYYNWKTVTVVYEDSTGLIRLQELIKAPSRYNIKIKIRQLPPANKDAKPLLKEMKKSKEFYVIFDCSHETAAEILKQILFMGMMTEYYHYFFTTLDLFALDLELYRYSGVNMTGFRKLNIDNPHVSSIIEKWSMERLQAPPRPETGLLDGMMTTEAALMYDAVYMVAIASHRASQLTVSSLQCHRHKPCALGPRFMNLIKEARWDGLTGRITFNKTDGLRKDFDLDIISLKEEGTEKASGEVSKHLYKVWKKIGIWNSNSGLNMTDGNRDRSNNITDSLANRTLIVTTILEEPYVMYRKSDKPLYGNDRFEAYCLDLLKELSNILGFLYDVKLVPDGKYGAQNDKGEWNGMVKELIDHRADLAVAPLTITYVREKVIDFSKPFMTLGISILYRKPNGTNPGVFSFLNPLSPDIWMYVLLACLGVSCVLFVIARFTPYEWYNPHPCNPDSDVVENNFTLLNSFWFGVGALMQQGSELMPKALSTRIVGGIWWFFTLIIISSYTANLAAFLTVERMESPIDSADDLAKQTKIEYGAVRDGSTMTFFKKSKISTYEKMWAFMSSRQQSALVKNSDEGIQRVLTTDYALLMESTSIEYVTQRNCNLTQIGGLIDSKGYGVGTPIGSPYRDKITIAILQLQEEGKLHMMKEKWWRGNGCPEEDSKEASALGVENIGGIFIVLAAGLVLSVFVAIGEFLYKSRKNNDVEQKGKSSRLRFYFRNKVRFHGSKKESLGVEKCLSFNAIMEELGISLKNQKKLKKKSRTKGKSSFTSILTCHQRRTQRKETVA

[9] = target: Tyrosine-protein kinase JAK1 (Homo sapiens) (UniProt P23458); experiment: JAK1 Invitrogen selectivity data (BI); details: Compound concentration 3.0 uM
Sequence of Tyrosine-protein kinase JAK1 (Homo sapiens) (P23458 whole entry): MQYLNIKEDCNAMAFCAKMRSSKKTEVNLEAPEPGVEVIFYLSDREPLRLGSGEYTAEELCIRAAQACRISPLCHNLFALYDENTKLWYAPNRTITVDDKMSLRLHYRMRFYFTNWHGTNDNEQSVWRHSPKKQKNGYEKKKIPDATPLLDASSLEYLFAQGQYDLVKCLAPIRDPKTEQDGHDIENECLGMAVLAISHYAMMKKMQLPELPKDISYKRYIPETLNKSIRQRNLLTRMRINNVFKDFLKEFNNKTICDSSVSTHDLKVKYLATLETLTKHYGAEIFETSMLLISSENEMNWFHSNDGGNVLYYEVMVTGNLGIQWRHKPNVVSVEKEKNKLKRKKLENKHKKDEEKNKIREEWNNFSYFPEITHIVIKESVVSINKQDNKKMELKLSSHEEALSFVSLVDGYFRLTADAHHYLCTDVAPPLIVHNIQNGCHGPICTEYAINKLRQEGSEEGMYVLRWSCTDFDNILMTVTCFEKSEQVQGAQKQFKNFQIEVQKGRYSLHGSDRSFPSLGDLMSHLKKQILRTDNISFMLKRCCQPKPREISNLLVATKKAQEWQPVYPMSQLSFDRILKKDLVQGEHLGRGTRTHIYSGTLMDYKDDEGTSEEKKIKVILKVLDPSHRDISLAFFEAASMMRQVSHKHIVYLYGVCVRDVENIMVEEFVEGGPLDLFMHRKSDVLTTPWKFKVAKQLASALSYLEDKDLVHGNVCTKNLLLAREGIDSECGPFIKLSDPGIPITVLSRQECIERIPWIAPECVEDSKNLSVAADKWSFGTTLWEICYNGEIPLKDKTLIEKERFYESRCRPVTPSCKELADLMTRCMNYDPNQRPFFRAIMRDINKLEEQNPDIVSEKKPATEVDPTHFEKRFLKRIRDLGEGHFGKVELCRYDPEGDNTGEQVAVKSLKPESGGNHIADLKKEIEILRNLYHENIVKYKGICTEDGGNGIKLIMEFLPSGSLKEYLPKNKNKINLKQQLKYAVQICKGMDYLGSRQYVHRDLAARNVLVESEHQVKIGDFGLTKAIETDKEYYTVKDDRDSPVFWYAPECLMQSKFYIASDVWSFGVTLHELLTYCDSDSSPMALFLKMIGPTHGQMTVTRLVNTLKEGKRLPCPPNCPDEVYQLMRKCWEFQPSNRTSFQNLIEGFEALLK

[10] = target: Somatostatin receptor type 4 (Homo sapiens) (UniProt P31391); experiment: SST4_HU Cerep selectivity data (BI); details: Compound concentration 20.0 uM
Sequence of Somatostatin receptor type 4 (Homo sapiens) (P31391 whole entry): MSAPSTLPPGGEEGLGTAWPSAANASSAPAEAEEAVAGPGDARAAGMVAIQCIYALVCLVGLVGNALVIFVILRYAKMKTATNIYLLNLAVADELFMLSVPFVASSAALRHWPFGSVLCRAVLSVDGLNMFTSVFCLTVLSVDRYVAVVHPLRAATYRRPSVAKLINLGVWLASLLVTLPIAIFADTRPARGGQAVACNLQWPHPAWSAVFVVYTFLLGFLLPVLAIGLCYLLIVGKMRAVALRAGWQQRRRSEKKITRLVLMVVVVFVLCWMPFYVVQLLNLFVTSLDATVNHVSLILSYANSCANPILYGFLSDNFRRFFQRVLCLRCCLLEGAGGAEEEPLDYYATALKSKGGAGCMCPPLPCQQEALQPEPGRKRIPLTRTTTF

[11] = target: T3, Myotonin-protein kinase (Homo sapiens) (UniProt Q09013); experiment: DMPK Invitrogen selectivity data (BI); details: Compound concentration 3.0 uM
T3 sequence (whole entry): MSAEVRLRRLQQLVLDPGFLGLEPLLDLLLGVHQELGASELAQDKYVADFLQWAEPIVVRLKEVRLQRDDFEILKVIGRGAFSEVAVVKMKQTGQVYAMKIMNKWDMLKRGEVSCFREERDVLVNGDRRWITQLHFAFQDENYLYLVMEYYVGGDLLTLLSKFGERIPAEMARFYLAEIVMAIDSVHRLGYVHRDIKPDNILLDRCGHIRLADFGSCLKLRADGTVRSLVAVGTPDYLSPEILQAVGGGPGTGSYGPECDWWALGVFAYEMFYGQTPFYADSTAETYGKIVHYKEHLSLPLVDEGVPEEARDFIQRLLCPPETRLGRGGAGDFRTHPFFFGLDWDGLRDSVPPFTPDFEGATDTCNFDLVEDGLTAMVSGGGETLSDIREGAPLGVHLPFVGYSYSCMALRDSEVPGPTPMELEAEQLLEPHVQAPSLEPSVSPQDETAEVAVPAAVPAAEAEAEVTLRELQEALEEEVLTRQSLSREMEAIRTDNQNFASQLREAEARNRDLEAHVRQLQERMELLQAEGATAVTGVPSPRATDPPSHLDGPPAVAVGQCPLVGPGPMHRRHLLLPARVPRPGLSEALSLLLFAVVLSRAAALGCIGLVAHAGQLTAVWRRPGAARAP

[12] = target: Ribosomal protein S6 kinase beta-1 (Homo sapiens) (UniProt P23443); experiment: RPS6KB1 Invitrogen selectivity data (BI); details: Compound concentration 3.0 uM
[13] = target: Histamine H2 receptor (Homo sapiens) (UniProt P25021); experiment: H2/APT/HS Cerep selectivity data (BI); details: filed as antagonist, Compound concentration 20.0 uM
Sequence of Histamine H2 receptor (Homo sapiens) (P25021 whole entry): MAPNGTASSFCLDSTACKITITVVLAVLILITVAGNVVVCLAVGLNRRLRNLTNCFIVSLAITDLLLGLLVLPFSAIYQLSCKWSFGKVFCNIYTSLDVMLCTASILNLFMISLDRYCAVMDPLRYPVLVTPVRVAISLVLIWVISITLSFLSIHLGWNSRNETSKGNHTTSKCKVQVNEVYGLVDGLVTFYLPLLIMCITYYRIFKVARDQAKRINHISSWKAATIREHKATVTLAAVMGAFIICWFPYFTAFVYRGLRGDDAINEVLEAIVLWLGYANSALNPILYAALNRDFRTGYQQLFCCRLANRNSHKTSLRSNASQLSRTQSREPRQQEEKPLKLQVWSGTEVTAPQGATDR

[14] = target: Vascular endothelial growth factor receptor 3 (Homo sapiens) (UniProt P35916); experiment: FLT4 Invitrogen selectivity data (BI); details: Compound concentration 3.0 uM
[15] = target: Serine/threonine-protein kinase pim-1 (Homo sapiens) (UniProt P11309); experiment: PIM1 Invitrogen selectivity data (BI); details: Compound concentration 3.0 uM
Sequence of Serine/threonine-protein kinase pim-1 (Homo sapiens) (P11309 whole entry, looked up): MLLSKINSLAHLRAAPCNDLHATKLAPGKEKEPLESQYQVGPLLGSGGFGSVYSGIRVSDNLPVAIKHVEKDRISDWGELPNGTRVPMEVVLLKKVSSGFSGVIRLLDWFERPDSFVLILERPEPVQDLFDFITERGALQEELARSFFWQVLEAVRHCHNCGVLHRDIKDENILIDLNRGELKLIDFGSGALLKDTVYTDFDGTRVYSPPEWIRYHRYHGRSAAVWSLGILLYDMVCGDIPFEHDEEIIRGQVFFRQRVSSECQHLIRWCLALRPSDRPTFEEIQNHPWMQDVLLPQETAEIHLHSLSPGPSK

[16] = target: Ephrin type-A receptor 7 (Homo sapiens) (UniProt Q15375); experiment: EPHA7 Invitrogen selectivity data (BI); details: Compound concentration 3.0 uM
Sequence of Ephrin type-A receptor 7 (Homo sapiens) (Q15375 28-998 limits assumed): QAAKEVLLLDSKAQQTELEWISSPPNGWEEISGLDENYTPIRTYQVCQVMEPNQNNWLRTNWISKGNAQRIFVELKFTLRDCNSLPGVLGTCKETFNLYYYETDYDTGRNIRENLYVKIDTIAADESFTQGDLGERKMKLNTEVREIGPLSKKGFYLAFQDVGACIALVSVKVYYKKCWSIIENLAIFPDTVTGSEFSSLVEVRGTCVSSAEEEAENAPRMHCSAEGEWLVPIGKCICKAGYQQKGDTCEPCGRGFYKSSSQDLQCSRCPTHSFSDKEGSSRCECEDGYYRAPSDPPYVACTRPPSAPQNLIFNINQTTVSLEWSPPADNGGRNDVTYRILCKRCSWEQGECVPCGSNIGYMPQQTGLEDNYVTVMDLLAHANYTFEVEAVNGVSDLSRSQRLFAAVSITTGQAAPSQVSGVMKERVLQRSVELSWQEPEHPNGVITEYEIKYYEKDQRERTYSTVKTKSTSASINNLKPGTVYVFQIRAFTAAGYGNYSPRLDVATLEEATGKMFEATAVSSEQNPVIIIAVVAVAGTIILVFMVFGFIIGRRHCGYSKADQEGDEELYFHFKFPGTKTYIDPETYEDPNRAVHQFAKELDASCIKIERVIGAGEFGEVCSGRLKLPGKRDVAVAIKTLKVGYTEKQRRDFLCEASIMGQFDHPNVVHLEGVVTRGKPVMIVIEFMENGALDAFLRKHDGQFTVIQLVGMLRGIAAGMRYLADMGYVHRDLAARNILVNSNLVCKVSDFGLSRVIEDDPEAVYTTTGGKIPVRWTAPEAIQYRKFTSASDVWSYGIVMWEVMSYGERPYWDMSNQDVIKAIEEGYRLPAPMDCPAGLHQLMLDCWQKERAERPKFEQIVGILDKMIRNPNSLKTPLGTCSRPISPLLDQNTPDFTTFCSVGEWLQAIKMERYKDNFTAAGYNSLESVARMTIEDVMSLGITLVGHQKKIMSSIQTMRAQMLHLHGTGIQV

[17] = target: Mitogen-activated protein kinase kinase kinase kinase 4 (Homo sapiens) (UniProt O95819); experiment: MAP4K4 Invitrogen selectivity data (BI); details: Compound concentration 3.0 uM
[18] = target: D(2) dopamine receptor (Homo sapiens) (UniProt P14416); experiment: D2S/HU Eurofins-Panlabs selectivity data (BI); details: Compound concentration 10.0 uM
Sequence of D(2) dopamine receptor (Homo sapiens) (P14416 whole entry): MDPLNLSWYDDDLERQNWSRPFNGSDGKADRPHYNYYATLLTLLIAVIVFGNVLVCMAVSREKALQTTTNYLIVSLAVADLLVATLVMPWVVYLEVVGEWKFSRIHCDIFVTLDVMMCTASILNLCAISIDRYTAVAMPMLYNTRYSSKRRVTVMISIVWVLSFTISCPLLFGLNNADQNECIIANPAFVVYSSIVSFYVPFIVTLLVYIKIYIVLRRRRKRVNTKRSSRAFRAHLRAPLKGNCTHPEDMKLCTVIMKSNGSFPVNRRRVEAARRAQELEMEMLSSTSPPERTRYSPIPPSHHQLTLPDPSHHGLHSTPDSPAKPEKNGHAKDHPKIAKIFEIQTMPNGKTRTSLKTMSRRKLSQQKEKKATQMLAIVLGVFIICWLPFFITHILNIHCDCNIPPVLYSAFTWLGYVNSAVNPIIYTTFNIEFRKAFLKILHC

[19] = target: B1 bradykinin receptor (Homo sapiens) (UniProt P46663); experiment: B1/H Eurofins-Panlabs selectivity data (BI); details: Compound concentration 10.0 uM

Sequence of 5-hydroxytryptamine receptor 1E (Homo sapiens) (P28566 whole entry): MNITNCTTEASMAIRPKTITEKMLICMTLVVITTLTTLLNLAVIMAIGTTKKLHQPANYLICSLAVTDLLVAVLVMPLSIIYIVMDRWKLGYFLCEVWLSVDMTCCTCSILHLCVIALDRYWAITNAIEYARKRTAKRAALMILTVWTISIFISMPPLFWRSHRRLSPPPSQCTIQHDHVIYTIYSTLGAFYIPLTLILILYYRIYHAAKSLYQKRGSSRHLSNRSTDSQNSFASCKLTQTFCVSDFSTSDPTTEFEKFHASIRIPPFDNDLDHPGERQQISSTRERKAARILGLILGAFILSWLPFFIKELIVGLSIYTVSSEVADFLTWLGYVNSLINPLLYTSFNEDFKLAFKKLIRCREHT

CN(C)C(=O)Cn1cc(-c2nc(C3(c4ccc(-c5cnc(N)nc5)cc4)CC3)no2)cn1 [BI 0153]
inactive: residual activity [1] 100% | inhibition [2] -7.33%

CN(C)C(=O)Cn1cc(-c2nc([C@@](C)(c3ccc(-c4cnc(N)nc4)cc3)C3CC3)no2)cn1 [BI 665915]
inactive: residual activity [3] 94.5% | residual activity [4] 111% | residual activity [5] 106% | residual activity [6] 104% | residual activity [7] 97% | residual activity [8] 82% | residual activity [9] 100% | residual activity [10] 146% | residual activity [11] 100% | residual activity [12] 97.5% | residual activity [13] 96% | residual activity [14] 69.5% | residual activity [15] 97.5% | residual activity [16] 78% | residual activity [17] 96.5% | residual activity [18] 94% | residual activity [19] 112%
